Assays:
[1] = target: T1, Solute carrier organic anion transporter family member 1B1 (Homo sapiens, UniProt Q9Y6L6); conditions: chinese hamster, cho, 10 µM
T1 sequence (Q9Y6L6 whole entry): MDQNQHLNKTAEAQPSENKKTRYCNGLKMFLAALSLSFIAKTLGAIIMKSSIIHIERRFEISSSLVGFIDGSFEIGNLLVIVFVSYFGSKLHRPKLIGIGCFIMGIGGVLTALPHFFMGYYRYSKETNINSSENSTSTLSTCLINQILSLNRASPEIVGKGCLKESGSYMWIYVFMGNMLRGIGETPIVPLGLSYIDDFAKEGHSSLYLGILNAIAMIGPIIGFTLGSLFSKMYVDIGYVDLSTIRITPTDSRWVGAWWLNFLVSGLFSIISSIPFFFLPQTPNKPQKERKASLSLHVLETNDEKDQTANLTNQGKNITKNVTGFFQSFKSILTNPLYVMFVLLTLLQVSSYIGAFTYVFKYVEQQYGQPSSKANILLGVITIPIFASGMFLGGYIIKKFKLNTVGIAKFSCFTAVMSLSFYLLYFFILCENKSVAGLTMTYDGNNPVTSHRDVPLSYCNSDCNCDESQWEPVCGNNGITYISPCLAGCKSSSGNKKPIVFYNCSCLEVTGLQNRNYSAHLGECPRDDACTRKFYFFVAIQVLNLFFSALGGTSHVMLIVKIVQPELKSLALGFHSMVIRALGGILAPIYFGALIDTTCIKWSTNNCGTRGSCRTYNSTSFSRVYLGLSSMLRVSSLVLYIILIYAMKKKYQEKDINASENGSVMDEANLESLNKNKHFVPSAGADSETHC

[2] = target: T2, Solute carrier organic anion transporter family member 1B3 (Homo sapiens, UniProt Q9NPD5); conditions: chinese hamster, cho, 10 µM
T2 sequence (Q9NPD5 whole entry): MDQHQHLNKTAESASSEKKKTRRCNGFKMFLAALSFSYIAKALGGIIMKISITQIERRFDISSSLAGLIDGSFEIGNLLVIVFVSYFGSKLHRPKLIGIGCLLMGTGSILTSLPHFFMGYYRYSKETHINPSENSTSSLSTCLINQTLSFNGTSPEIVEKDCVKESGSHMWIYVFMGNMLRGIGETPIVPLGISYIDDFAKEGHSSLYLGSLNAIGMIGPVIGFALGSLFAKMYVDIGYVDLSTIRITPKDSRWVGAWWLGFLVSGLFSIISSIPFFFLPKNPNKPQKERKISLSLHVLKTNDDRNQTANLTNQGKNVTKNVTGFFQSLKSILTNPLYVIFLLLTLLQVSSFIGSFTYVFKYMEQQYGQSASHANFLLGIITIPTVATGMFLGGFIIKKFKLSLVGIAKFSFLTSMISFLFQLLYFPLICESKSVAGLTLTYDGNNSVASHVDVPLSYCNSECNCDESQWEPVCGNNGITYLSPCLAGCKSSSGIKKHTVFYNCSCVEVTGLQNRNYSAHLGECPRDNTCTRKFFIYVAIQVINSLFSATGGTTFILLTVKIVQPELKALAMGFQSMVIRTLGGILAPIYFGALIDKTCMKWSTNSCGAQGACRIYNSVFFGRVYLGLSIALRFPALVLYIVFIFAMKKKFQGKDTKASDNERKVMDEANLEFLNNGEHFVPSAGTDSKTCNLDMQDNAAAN

Cl.O=C(O)c1cn(-c2ccc(F)cc2)c2cc(N3CCNCC3)c(F)cc2c1=O [SARAFLOXACIN HYDROCHLORIDE]
residual activity [1]: 109.6%
residual activity [2]: 115.6%

CN(C)CCc1c[nH]c2ccc(CS(=O)(=O)N3CCCC3)cc12 [ALMOTRIPTAN]
residual activity [1]: 95.85%
residual activity [2]: 94.33%

CN1CCN(C(c2ccccc2)c2ccccc2)CC1 [CYCLIZINE]
residual activity [1]: 88.13%
residual activity [2]: 103%

O=C1OC(=O)C2C3CCC(O3)C12 (stereo not drawn)
residual activity [1]: 106.4%
residual activity [2]: 93.17%

O=C(O)c1cc2ccccc2[nH]1 [INDOLE-2-CARBOXYLIC ACID]
residual activity [1]: 121.4%
residual activity [2]: 117.8%

CCN1C[C@]2(C)CC[C@H](OC)[C@@]34C1[C@]1(OCO[C@@]15C[C@H](OC)[C@H]1C[C@]3(O)[C@@H]5[C@H]1OC)[C@@H](OC(C)=O)[C@H]24 [DELTALINE]
residual activity [1]: 88.11%
residual activity [2]: 103.5%

C#CCCCCCCCCCCCC(O)CC(O)COC(C)=O (stereo not drawn) [AVOCADYNE ACETATE]
residual activity [1]: 144.6%
residual activity [2]: 109.9%

O=C(O)CCCN1C(=O)c2cccc3cccc(c23)C1=O
residual activity [1]: 113.1%
residual activity [2]: 112.7%

CC(C)=CCc1c(O)cc(C)oc1=O [2-ISOPRENYL-3-HYDROXY-5-METHYL-a-PYRONE]
residual activity [1]: 101.1%
residual activity [2]: 115.1%

COc1cc2c(cc1OC)-c1cc3ccc(OC)c(OC)c3c[n+]1CC2.[Cl-] [PALMATINE CHLORIDE]
residual activity [1]: 110.1%
residual activity [2]: 97.62%

COc1c(O)cc2c(-c3ccccc3)cc(=O)oc2c1OC [KUHLMANNIN]
residual activity [1]: 128.2%
residual activity [2]: 118.4%

COc1ccc2ccc(=O)oc2c1CC=C(C)C [OSTHOLE]
residual activity [1]: 227.1%
residual activity [2]: 121.3%

C=C1c2c(Cl)ccc(O)c2C(=O)C2=C(O)[C@]3(O)C(=O)C(C(N)=O)=C(O)[C@@H](N(C)C)[C@@H]3[C@@H](O)[C@H]12.O=C(O)c1cc(S(=O)(=O)O)ccc1O [MECLOCYCLINE SULFOSALICYLATE]
residual activity [1]: 122.1%
residual activity [2]: 107.8%

Cc1nnc(NS(=O)(=O)c2ccc(N)cc2)s1 [SULFAMETHIZOLE]
residual activity [1]: 89.01%
residual activity [2]: 100.6%

CNC(=O)N(C)c1nnc(C(C)(C)C)s1 [TEBUTHIURON]
residual activity [1]: 87.52%
residual activity [2]: 111.4%

COc1ccc2c(=O)ccoc2c1 [7-METHOXYCHROMONE]
residual activity [1]: 91.79%
residual activity [2]: 95.23%

CNc1ccc(C(=O)CC(O)CCC(C)C2OC(=O)CC(O)CC(=O)CC(O)CC(O)CC(O)CC(O)CC3(O)CC(O)C(C(=O)OC)C(CC(O[C@@H]4O[C@H](C)[C@@H](O)[C@H](N)[C@@H]4O)/C=C/C=C/C=C/C=C/C=C/C=C/C=C/C2C)O3)cc1.COC(=O)C1C(O)CC2(O)CC(O)CC(O)CC(O)CC(O)CC(=O)CC(O)CC(=O)OC(C(C)CCC(O)CC(=O)c3ccc(N)cc3)C(C)/C=C/C=C/C=C/C=C/C=C/C=C/C=C/C(O[C@@H]3O[C@H](C)[C@@H](O)[C@H](N)[C@@H]3O)CC1O2 (stereo partly drawn) [MEPARTRICIN]
residual activity [1]: 95.55%
residual activity [2]: 86.4%

COC(=O)C[C@H]1C(C)(C)[C@H](O)[C@@H]2CC3=C4CC(O)O[C@@H](c5ccoc5)[C@@]4(C)CCC3[C@]1(C)C2=O (stereo partly drawn) [3,16-DIDEOXYMEXICANOLIDE-3alpha-DIOL]
residual activity [1]: 67.63%
residual activity [2]: 96.33%

O=C(O)c1cc(O)c2c(c1)[C@H]([C@H]1c3cc(C(=O)O)cc(O)c3C(=O)c3c(O[C@@H]4O[C@H](CO)[C@@H](O)[C@H](O)[C@H]4O)cccc31)c1cccc(O[C@@H]3O[C@H](CO)[C@@H](O)[C@H](O)[C@H]3O)c1C2=O [Sennoside A]
residual activity [1]: 122.9%
residual activity [2]: 111.1%

COc1ccc2cc1Oc1ccc(cc1)C[C@H]1c3cc(c(OC)cc3CCN1C)Oc1c(OC)c(OC)cc3c1[C@H](C2)N(C)CC3 [FANCHININ]
residual activity [1]: 75.74%
residual activity [2]: 220.2%

COc1cc(OC)cc(OC)c1 [1,3,5-TRIMETHOXYBENZENE]
residual activity [1]: 90.48%
residual activity [2]: 68.6%

CC1(C)C=CC(=O)[C@]2(C)[C@H]3CC[C@@]4(C)[C@H](c5ccoc5)OC(=O)[C@H]5O[C@]54[C@]3(C)C(=O)C[C@@H]12
residual activity [1]: 56.15%
residual activity [2]: 89.62%

COc1cc2c(cc1OC)[C@@H]1C(=O)c3ccc4oc(C(C)C)cc4c3O[C@@H]1CO2 [ISOROTENONE]
residual activity [1]: 78.62%
residual activity [2]: 87.44%

Nc1ccc(S(=O)(=O)Nc2nccs2)cc1 [SULFATHIAZOLE]
residual activity [1]: 89.12%
residual activity [2]: 85.21%

Nc1nc2c(ncn2COCCO)c(=O)[nH]1 [ACYCLOVIR]
residual activity [1]: 103.4%
residual activity [2]: 105.5%

C=C1C[C@H]2O[C@]2(C)CC[C@@H]2[C@@H]1CC2(C)C
residual activity [1]: 54.1%
residual activity [2]: 80.12%

CCN1CCCC(OC(=O)C(c2ccccc2)c2ccccc2)C1.Cl (stereo not drawn) [PIPERIDOLATE HYDROCHLORIDE]
residual activity [1]: 65.65%
residual activity [2]: 96%

C=CCc1ccc2c(c1)OCO2 [SAFROLE]
residual activity [1]: 83.42%
residual activity [2]: 100.9%

NC/C=C/C(=O)O [t-4-AMINOCROTONIC ACID (TACA)]
residual activity [1]: 119.6%
residual activity [2]: 94.21%

COc1cc(C)c(C(=O)Oc2cc(C)c(C(=O)O)c(O)c2C)c(O)c1C=O [BAEOMYCESIC ACID]
residual activity [1]: 23.01%
residual activity [2]: 46.77%

O=C(CCCN1CCC(O)(c2ccc(Cl)cc2)CC1)c1ccc(F)cc1 [HALOPERIDOL]
residual activity [1]: 92.15%
residual activity [2]: 111.7%

C[C@@H]1[C@H]2[C@H](O[C@@H]3O[C@H](CO)[C@@H](O)[C@H](O)[C@H]3O)OC=C(C(=O)O)[C@H]2C[C@@H]1O [LOGANIC ACID]
residual activity [1]: 49.18%
residual activity [2]: 99.49%

CC(C)=CC1C(C(=O)OCc2cccc(Oc3ccccc3)c2)C1(C)C (stereo not drawn) [PHENOTHRIN]
residual activity [1]: 157.5%
residual activity [2]: 107.3%

CC1(C)C[C@@H]2[C@H]1CC[C@]1(C)C[C@@]2(O)CC[C@H]1O
residual activity [1]: 81.35%
residual activity [2]: 87.7%

CC(=O)N(O)CCCCCNC(=O)CCC(=O)N(O)CCCCCNC(=O)CCC(=O)N(O)CCCCCN.CS(=O)(=O)O [DEFEROXAMINE MESYLATE]
residual activity [1]: 116.4%
residual activity [2]: 98.92%

COc1c2occc2cc2ccc(=O)oc12 [METHOXSALEN]
residual activity [1]: 102.5%
residual activity [2]: 107.3%

COc1cc(C(=O)NCc2ccc(OCCN(C)C)cc2)cc(OC)c1OC.Cl [TRIMETHOBENZAMIDE HYDROCHLORIDE]
residual activity [1]: 111%
residual activity [2]: 140.2%

C[C@H]1CC[C@]2(NC1)O[C@H]1C[C@H]3[C@@H]4CC[C@H]5C[C@@H](O[C@@H]6O[C@H](CO)[C@H](O[C@@H]7O[C@H](CO)[C@@H](O)[C@H](O[C@@H]8OC[C@@H](O)[C@H](O)[C@H]8O)[C@H]7O[C@@H]7O[C@H](CO)[C@@H](O)[C@H](O)[C@H]7O)[C@H](O)[C@H]6O)CC[C@]5(C)[C@H]4CC[C@]3(C)[C@H]1[C@@H]2C [TOMATINE]
residual activity [1]: 96.72%
residual activity [2]: 100.3%

COC(=O)/C(=C1/OC(=O)C(c2ccccc2)=C1O)c1ccccc1 [VULPINIC ACID]
residual activity [1]: 57.14%
residual activity [2]: 83.34%

From ChEMBL document CHEMBL3039007, “Structure-based identification of OATP1B1/3 inhibitors” (Mol Pharmacol, 2013)
